According to patent publication US20220153728A1, “COMPOUNDS, COMPOSITIONS AND METHODS” (DENALI THERAPEUTICS INC., priority 2017, published 2022):

The compounds below were run against LRRK2 G2019S (Homo sapiens, UniProt Q5S007, G2019S) (assay: LRRK2 G2019S TR-FRET kinase assay (LRRKtide substrate)). Details: LRRK2 G2019S enzyme 5 nM, 134 μM ATP, 60 minute reaction, 23° C.
Sequence of LRRK2 G2019S (Q5S007 whole entry G2019S): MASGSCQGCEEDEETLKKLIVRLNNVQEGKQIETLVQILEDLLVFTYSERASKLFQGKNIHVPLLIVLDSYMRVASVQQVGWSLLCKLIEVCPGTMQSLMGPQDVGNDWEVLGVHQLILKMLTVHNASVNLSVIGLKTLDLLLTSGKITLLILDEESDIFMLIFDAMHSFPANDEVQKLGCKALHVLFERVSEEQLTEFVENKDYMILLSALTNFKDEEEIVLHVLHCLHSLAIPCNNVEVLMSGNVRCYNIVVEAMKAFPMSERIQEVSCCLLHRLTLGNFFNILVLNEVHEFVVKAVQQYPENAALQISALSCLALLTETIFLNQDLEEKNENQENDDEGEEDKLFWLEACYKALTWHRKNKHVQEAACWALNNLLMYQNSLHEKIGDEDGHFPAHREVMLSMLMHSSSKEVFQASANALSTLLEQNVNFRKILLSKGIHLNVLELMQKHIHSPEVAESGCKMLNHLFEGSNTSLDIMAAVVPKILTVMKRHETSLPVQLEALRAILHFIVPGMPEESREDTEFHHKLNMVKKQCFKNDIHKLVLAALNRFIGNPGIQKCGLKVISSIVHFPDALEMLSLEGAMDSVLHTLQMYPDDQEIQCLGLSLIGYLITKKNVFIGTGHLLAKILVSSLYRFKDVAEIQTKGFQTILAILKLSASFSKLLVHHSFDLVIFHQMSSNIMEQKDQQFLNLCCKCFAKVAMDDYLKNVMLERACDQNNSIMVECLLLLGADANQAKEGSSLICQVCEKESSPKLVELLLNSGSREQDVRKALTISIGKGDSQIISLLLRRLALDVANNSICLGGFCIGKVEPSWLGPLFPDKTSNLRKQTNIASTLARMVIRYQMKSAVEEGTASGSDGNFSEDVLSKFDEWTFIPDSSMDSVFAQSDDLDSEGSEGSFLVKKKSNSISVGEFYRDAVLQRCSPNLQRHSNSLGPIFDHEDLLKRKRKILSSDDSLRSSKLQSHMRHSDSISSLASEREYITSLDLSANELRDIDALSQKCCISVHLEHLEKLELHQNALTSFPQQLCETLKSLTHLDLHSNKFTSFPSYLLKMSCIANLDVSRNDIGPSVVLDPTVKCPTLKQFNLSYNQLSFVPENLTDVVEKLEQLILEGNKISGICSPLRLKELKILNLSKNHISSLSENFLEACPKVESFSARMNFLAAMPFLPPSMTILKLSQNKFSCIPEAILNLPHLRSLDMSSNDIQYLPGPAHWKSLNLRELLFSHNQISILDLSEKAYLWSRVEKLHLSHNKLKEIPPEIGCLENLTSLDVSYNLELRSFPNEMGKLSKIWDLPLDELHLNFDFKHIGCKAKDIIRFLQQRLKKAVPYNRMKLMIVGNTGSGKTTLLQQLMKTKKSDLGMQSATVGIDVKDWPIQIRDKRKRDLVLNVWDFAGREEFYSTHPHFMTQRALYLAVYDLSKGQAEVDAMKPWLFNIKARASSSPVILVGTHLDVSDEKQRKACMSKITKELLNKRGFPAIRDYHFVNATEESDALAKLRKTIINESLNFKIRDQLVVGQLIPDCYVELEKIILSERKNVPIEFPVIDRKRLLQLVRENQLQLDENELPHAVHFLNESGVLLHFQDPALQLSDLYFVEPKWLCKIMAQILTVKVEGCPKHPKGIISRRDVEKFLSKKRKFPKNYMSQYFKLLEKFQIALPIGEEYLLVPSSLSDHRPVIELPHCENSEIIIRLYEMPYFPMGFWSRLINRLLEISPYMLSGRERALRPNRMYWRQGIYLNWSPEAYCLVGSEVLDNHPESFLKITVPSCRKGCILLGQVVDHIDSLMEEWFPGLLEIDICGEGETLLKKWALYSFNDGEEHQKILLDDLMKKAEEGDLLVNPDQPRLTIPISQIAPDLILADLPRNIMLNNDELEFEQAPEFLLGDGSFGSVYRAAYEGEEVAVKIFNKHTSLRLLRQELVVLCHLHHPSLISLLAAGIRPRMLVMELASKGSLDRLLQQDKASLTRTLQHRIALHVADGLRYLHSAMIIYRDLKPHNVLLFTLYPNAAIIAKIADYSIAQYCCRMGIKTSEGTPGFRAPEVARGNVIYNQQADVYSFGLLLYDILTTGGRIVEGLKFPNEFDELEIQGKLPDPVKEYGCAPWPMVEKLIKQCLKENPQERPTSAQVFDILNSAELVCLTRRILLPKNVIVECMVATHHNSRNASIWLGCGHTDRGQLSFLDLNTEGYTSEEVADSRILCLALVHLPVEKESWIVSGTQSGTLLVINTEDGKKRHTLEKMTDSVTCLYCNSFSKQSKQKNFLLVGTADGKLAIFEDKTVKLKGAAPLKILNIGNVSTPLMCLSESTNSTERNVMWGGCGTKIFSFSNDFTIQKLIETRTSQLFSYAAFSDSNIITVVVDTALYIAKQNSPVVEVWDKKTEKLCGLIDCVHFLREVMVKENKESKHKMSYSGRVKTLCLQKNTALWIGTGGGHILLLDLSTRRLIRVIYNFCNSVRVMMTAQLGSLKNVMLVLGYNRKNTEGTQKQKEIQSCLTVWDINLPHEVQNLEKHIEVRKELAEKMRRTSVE
Format: biochemical
Protocol: Materials: • LRRK2 G2019S enzyme • Substrate (LRRKtide) • ATP • TR-FRET dilution buffer • pLRRKtide antibody • 384-well assay plate • DMSO
Enzyme Reaction Conditions
23° C. reaction temperature
10 μL total reaction volume
Detection Reaction Conditions
1×TR-FRET dilution buffer
2 nM antibody • 23° C. reaction temperature • 10 μL total reaction volume
Compounds are prepared by initially diluting to 1 mM with DMSO. 35 μL of reference compound solution, 35 μL of test compound solution, and 35 μL HPE are successively added to the source plate (384-well assay plate, Labcyte). The plates are centrifuged at 2500 rpm for 1 minute and sealed in foil. POD is used to perform a 3.162 fold serial dilution and 100 nL of reference compound solution, test compound solution, HPE and ZPE are transferred to assay plates. The assay plate is centrifuged at 2500 rpm for 1 minute, and sealed with foil.
To perform the enzyme reaction, 5 μL of LRRKtide substrate and kinase mixture in assay buffer is added to all wells of the assay plate. The plate is centrifuged to concentrate the mixture at the bottom of the wells. The assay plate is incubated at 23° C. for 20 minutes. Following incubation, 5 μL of 2×ATP in assay buffer is added to each well, and plates are centrifuged to concentrate the mixture at the bottom of the wells. The plate is incubated at 23° C. for 60 minutes.
To perform the detection of the reaction, EDTA completely mixed in TR-FRET dilution buffer is added to antibody reagent. 10 μL of detection reagent is added to all wells of each well of the assay plate and the plate is centrifuged to concentrate the mixture at the bottom of the wells. The plate is then incubated at 23° C. for 60 minutes. Plates are read on Perkin Elmer Envision 2104 instrument in TR-FRET mode using a 340 nm excitation filter, 520 nm fluorescence emission filter, and 490 or 495 nm terbium emission filter.
For CCNc1nc(Nc2cnn(C3C[C@@H]3C#N)c2C)ncc1C(F)(F)F (single isomer, unassigned) [Compound 18], the IC50 was < 30 nM. With Cc1nn(C2C[C@@]2(C)C#N)cc1Nc1ncc(C(F)(F)F)c(NC2CC2)n1 (single isomer, unassigned) [Compound 9] the IC50 was < 30 nM. CCNc1nc(Nc2cn(C3C[C@]3(C)C#N)nc2C)ncc1Br (single isomer, unassigned) [Compound 11] was tested, and the IC50 was < 30 nM. With Cc1nn(C2C[C@]2(C)C#N)cc1Nc1ncc(C(F)(F)F)c(NC2CC2)n1 (single isomer, unassigned) [Compound 7] the IC50 was < 30 nM. In the case of Cc1c(Nc2ncc(C(F)(F)F)c(NC3CC3)n2)cnn1C1C[C@]1(C)C#N (single isomer, unassigned) [Compound 15], the IC50 is reported as < 30 nM. CCNc1nc(Nc2cn(C3C[C@H]3C#N)nc2C2CC2)ncc1C(F)(F)F (single isomer, unassigned) [Compound 17] was tested, and the IC50 was < 30 nM. CNc1nc(Nc2cn(C3C[C@@]3(C)C#N)nc2C)ncc1C(F)(F)F (single isomer, unassigned) [Compound 10] was tested, and the IC50 was < 30 nM. In the case of CNc1nc(Nc2cn(C3C[C@]3(C)C#N)nc2C2CC2)ncc1C(F)(F)F (single isomer, unassigned) [Compound 3], the IC50 is reported as < 30 nM. CCNc1nc(Nc2cn(C3C[C@@]3(C)C#N)nc2C)ncc1Br (single isomer, unassigned) [Compound 12] was tested, and the IC50 was < 30 nM. In the case of Cc1nn(C2C[C@]2(C)C#N)cc1Nc1ncc(C(F)(F)F)c(NC2(C)CC2)n1 (single isomer, unassigned) [Compound 13], the IC50 is reported as < 30 nM. CCNc1nc(Nc2cn(C3C[C@@]3(C)C#N)nc2C2CC2)ncc1C(F)(F)F (single isomer, unassigned) [Compound 1, 2-(3-cyclopropyl-4-((4-(ethylamino)-5-(trifluoromethyl)pyrimidin-2-yl)amino)-1H-pyrazol-1-yl)-1-methylcyclopropanecarbonitrile] was tested, and the IC50 was < 30 nM. With CCNc1nc(Nc2cn(C3C[C@@]3(C)C#N)nc2C)ncc1C(F)(F)F (single isomer, unassigned) [Compound 8] the IC50 was < 30 nM. For CCNc1nc(Nc2cn(C3C[C@]3(C)C#N)nc2C2CC2)ncc1C(F)(F)F (single isomer, unassigned) [Compound 4, 2-(3-cyclopropyl-4-((4-(ethylamino)-5-(trifluoromethyl)pyrimidin-2-yl)amino)-1H-pyrazol-1-yl)-1-methylcyclopropanecarbonitrile], the IC50 was < 30 nM. CNc1nc(Nc2cn(C3C[C@]3(C)C#N)nc2C)ncc1C(F)(F)F (single isomer, unassigned) [Compound 5] was tested, and the IC50 was < 30 nM. In the case of Cc1nn(C2C[C@@]2(C)C#N)cc1Nc1ncc(C(F)(F)F)c(NC2(C)CC2)n1 (single isomer, unassigned) [Compound 14], the IC50 is reported as < 30 nM. Cc1c(Nc2ncc(C(F)(F)F)c(NC3CC3)n2)cnn1C1C[C@@]1(C)C#N (single isomer, unassigned) [Compound 16] was tested, and the IC50 was < 30 nM. For CCNc1nc(Nc2cnn(C3C[C@H]3C#N)c2C)ncc1C(F)(F)F (single isomer, unassigned) [Compound 19], the IC50 was < 30 nM. In the case of CCNc1nc(Nc2cn(C3C[C@]3(C)C#N)nc2C)ncc1C(F)(F)F (single isomer, unassigned) [Compound 6], the IC50 is reported as < 30 nM. In the case of CNc1nc(Nc2cn(C3C[C@@]3(C)C#N)nc2C2CC2)ncc1C(F)(F)F (single isomer, unassigned) [Compound 2], the IC50 is reported as < 30 nM.
